Patent US20080194585A1, “Fungicidal Pyrazine Derivatives” (priority 2005, published 2008)

Assays:
Plasmopara viticola = experiment: Test D: grape downy mildew, spray after inoculation of grape seedlings; type: in vivo; settings: 200 ppm; for pest or weed control at 200 ppm: Plasmopara viticola, 168 h, read-out: Test D disease control rating
Source text: Upon removal, disease ratings were made. […] A dash (-) indicates no test results.

Phytophthora infestans = experiment: whole plant or invertebrate; type: in vivo; settings: for Test F disease control rating: 200 ppm
fusarium graminearium = experiment: Test I: wheat head scab, preventive spray on wheat seedlings; settings: for pest or weed control at 200 ppm: Fusarium, in Triticum aestivum, topical, 192 h, read-out: Test I disease control rating, 200 ppm; for Test I disease control rating: 200 ppm
Description: (the causal agent of wheat head scab) and incubated in a saturated atmosphere at 20° C. for 72 h, and then moved to a growth chamber at 22° C. for 5 days, after which disease ratings were made.

[1] = tested on: Puccinia recondita f. sp. tritici; experiment: Test K: wheat leaf rust, preventive spray on wheat seedlings; settings: for pest or weed control at 200 ppm: Puccinia recondita, in Triticum aestivum, 192 h, read-out: Test K disease control rating; for Test K disease control rating: 200 ppm
Botrytis cinerea = experiment: Test E: tomato botrytis, preventive spray on tomato seedlings; settings: for pest or weed control at 200 ppm: Botrytis cinerea, in Solanum lycopersicum, topical, 72 h, read-out: Test E disease control rating; for Test E disease control rating: 200 ppm
Septoria nodorum = experiment: Test H: wheat glum blotch, preventive spray on wheat seedlings; settings: for pest or weed control at 200 ppm: Parastagonospora nodorum, in Triticum aestivum, topical, 168 h, read-out: Test H disease control rating, 200 ppm; for Test H disease control rating: 200 ppm
Description: (the causal agent of wheat glum blotch) and incubated in a saturated atmosphere at 20° C. for 48 h, and then moved to a growth chamber at 22° C. for 5 days, after which disease ratings were made.

[2] = tested on: Erysiphe graminis f. sp. tritici; experiment: Test L: wheat powdery mildew, preventive spray on wheat seedlings; settings: for pest or weed control at 200 ppm: Blumeria graminis, in Triticum aestivum, 168 h, read-out: Test L disease control rating, 200 ppm; for Test L disease control rating: 200 ppm
Sclerotinia sclerotiorum = experiment: Test C: cucumber white mold, preventive spray on cucumber seedlings; settings: for pest or weed control at 200 ppm: Sclerotinia sclerotiorum, in Cucumis sativus, 168 h, read-out: Test C disease control rating, 200 ppm; for Test C disease control rating: 200 ppm
Pythium aphanidermatum = experiment: Test A: bluegrass pythium blight, preventive spray on bluegrass seedlings; settings: for pest or weed control at 200 ppm: Pythium aphanidermatum, 120 h, read-out: Test A disease control rating; for Test A disease control rating: 200 ppm
Rhizoctonia oryzae = experiment: Test G: turf brown patch, preventive spray on creeping bent grass seedlings; settings: for pest or weed control at 200 ppm: Waitea circinata, in Agrostis stolonifera, topical, 144 h, read-out: Test G disease control rating, 200 ppm; for Test G disease control rating: 200 ppm
Description: (the causal agent of turf brown patch) and incubated in a saturated atmosphere at 27° C. for 24 h, and then moved to a growth chamber at 27° C. for 5 days, after which disease ratings were made.

[3] = tested on: Colletotrichum orbiculare; experiment: Test B: cucumber Colletotrichum anthracnose, preventive spray on cucumber seedlings; settings: for pest or weed control at 200 ppm: Colletotrichum orbiculare, in Cucumis sativus, 144 h, read-out: Test B disease control rating, 200 ppm; for Test B disease control rating: 200 ppm

Compound	Test D disease control rating (Plasmopara viticola) [%]	Test F disease control rating (Phytophthora infestans) [%]	Test I disease control rating (fusarium graminearium) [%]	Test K disease control rating [1] [%]	Test E disease control rating (Botrytis cinerea) [%]	Test H disease control rating (Septoria nodorum) [%]	Test L disease control rating [2] [%]	Test C disease control rating (Sclerotinia sclerotiorum) [%]	Test A disease control rating (Pythium aphanidermatum) [%]	Test G disease control rating (Rhizoctonia oryzae) [%]	Test B disease control rating [3] [%]	other results
CC(C)Cn1c(-c2c(F)cccc2F)c(Cl)nc(-n2cccn2)c1=O [Compound 1, 5-Chloro-6-(2,6-difluorophenyl)-1-(2-methylpropyl)-3-(1H-pyrazol-1-yl)-2(1H)-pyrazinone]												pest or weed control at 200 ppm (Plasmopara viticola): 0%; pest or weed control at 200 ppm (Phytophthora infestans; Phytophthora infestans, in Solanum lycopersicum, topical, 144 h, read-out: Test F disease control rating): 0%; pest or weed control at 200 ppm (fusarium graminearium): 0%; pest or weed control at 200 ppm [1]: 99%; pest or weed control at 200 ppm (Botrytis cinerea): 100%; pest or weed control at 200 ppm (Septoria nodorum): 99%; pest or weed control at 200 ppm [2]: 93%; pest or weed control at 200 ppm (Sclerotinia sclerotiorum): 0%; pest or weed control at 200 ppm (Pythium aphanidermatum): 0%; pest or weed control at 200 ppm (Rhizoctonia oryzae): 78%; pest or weed control at 200 ppm [3]: 0%
CC(C)Cn1c(-c2c(F)cccc2F)c(Cl)nc(C#N)c1=O [Compound 5, 6-Chloro-5-(2,6-difluorophenyl)-3,4-dihydro-4-(2-methylpropyl)-3-oxopyrazinecarbonitrile]												pest or weed control at 200 ppm (Plasmopara viticola): 24%; pest or weed control at 200 ppm (fusarium graminearium): 20%; pest or weed control at 200 ppm [1]: 99%; pest or weed control at 200 ppm (Botrytis cinerea): 71%; pest or weed control at 200 ppm (Septoria nodorum): 0%; pest or weed control at 200 ppm [2]: 97%; pest or weed control at 200 ppm (Sclerotinia sclerotiorum): 0%; pest or weed control at 200 ppm (Pythium aphanidermatum): 71%; pest or weed control at 200 ppm (Rhizoctonia oryzae): 26%; pest or weed control at 200 ppm [3]: 33%
Cn1c(-c2ccccc2F)c(Cl)nc(-n2cncn2)c1=O [Compound 15]	0	0	0	0	0	0	0	0	0	0	0	
CC(C)Cn1c(-c2c(F)cccc2Cl)c(Cl)nc(-n2cccn2)c1=O [compound 9]	49	88	80	100	100	100	99	98	62	82	100	
Cn1c(-c2ccccc2F)c(Cl)nc(-n2cccn2)c1=O [compound 14]	0	27	0	0	79	0	21	0	0	0	0	
O=c1c(N2CCC=N2)nc(Cl)c(-c2c(F)cccc2F)n1CC1CC1 [compound 16]	8	84	0	68	99	0	26	0	0	0	0	
CCC(C)Cn1c(-c2c(F)cc(F)cc2F)c(Cl)nc(-n2cncn2)c1=O (stereo not drawn) [compound 20]	0	30	0	100	100	98	98	0	0	26	0	
CCC(C)Cn1c(-c2c(F)cccc2F)c(Cl)nc(C#N)c1=O (stereo not drawn) [compound 21]	15	0	0	96	99	0	96	0	0	31	0	
